Assay results taken from patent US11254661B2, “Quinoline derivatives for treating infections with helminths” (Bayer Animal Health GMBH, priority 2017, dated 2022).

How the values were obtained:
[1] = test system: Dirofilaria immitis microfilariae; assay: In Vitro Assay 2: Dirofilaria immitis microfilariae (DIROIM L1) motility; details: 72 h
[2] = test system: Dirofilaria immitis third-stage larvae; assay: In Vitro Assay 3: Dirofilaria immitis (DIROIM L4) larval motility; details: 72 h
[3] = molecular target: C. elegans Slo-1a (Caenorhabditis elegans, UniProt Q95V25)
Chain of C. elegans Slo-1a (Q95V25 whole entry): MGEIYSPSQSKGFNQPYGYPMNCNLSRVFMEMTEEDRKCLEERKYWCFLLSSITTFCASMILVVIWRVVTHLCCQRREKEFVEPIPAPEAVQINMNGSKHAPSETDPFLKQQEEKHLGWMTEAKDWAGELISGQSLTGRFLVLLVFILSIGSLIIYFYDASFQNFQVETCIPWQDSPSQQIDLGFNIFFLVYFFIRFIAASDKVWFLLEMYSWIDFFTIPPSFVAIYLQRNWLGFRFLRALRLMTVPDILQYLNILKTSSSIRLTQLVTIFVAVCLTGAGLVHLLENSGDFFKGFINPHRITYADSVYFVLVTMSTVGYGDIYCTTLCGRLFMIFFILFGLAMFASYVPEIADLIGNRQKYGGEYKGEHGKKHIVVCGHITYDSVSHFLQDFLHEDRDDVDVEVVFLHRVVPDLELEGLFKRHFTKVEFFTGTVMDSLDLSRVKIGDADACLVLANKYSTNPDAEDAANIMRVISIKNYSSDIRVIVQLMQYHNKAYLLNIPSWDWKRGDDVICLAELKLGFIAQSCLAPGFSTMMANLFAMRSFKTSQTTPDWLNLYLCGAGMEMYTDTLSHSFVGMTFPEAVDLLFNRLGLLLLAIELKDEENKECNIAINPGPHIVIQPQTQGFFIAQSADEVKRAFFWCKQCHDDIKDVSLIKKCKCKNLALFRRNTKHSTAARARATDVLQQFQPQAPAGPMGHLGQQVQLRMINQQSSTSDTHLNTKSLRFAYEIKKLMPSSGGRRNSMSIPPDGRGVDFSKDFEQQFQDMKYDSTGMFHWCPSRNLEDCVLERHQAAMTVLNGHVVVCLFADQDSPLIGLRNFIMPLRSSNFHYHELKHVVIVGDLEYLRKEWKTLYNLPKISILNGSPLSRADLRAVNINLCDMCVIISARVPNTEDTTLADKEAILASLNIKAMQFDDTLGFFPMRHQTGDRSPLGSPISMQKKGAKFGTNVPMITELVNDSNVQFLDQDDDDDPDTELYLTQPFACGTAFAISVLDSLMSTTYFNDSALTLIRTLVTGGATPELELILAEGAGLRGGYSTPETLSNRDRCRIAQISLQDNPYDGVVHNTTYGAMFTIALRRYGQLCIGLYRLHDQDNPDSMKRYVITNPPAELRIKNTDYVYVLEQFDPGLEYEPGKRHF
Description: In Vitro Assay 1: C. elegans Slo-1a—Action at a Recombinant C. elegans Cell Line
Cells were cultured at 37° C. and 5% CO2 in MEMalpha with Gutamax I (Invitrogen, Nr.: 32571), supplemented with 10% (v/v) heat inactivated fetal bovine serum (Invitrogen, Nr.: 10500), G418 (1 mg/ml, Invitrogen, Nr.: 10131). Cells were detached using Accutase (Sigma, Nr.: A6964).
Membrane Potential Measurements
Laboratory compound testing was performed on 384-well microtiter plates (MTPs, Greiner, Nr.: 781092). 8000 cells/well were plated onto 384-well MTPs and cultured for 20 to 24 hours at 37° C. and 5% CO2. After removal of the cell culture medium, the cells were washed once with tyrode (150 mM NaCl, 0.3 mM KCl, 2 mM CaCl2, 1 mM MgCl2, 0.8 mM NaH2PO4, 5 mM Glucose, 28 mM Hepes, pH 7.4) and then loaded with the voltage sensitive dye of the Membrane Potential Assay Kit diluted in tyrode for 1 h at room temperature.
After starting the measurement of fluorescence using a FLIPR Tetra(Molecular Devices, Exc. 510-545 nm, Emm. 565-625 nm), test compounds were added followed by the addition of KCl tyrode (final assay concentration: 70 mM KCl, 2 mM CaCl2, 1 mM MgCl2, 0.8 mM NaH2PO4, 5 mM Glucose, 28 mM Hepes, pH 7.4, including the voltage sensitive dye). The measurement was completed after 7 minutes.

| SMILES | EC50 [1] | EC50 [2] | EC50 [3] |
| --- | --- | --- | --- |
| O=C(N[C@H]1CCc2ccccc21)c1cnc2c(N3CCC(F)(F)CC3)c(F)ccc2c1N1CCOCC1 [Example 40, 8-(4,4-difluoropiperidin-1-yl)-N-[(1S)-2,3-dihydro-1H-inden-1-yl]-7-fluoro-4-(morpholin-4-yl)quinoline-3-carboxamide] | < 0.1 µg/mL | < 0.1 µg/mL | 3.16 to 31.6 nM |
| C[C@@H]1C[C@H](C)CN(c2cccc3c(N4CCOCC4)c(C(=O)N[C@H]4CCOc5ccccc54)cnc23)C1 [Example 33, N-[(4S)-3,4-dihydro-2H-chromen-4-yl]-8-[(3R,5S)-3,5-dimethylpiperidin-1-yl]-4-(morpholin-4-yl)quinoline-3-carboxamide] | < 0.1 µg/mL | < 0.1 µg/mL | < 3.16 nM |
| O=C(N[C@H]1CCc2ccccc21)c1cnc2c(N3CCCCC3)c(F)ccc2c1N1CCOCC1 [Example 43, N-[(1S)-2,3-dihydro-1H-inden-1-yl]-7-fluoro-4-(morpholin-4-yl)-8-(piperidin-1-yl)quinoline-3-carboxamide] | < 0.1 µg/mL | < 0.1 µg/mL | 3.16 to 31.6 nM |
| C[C@@H]1C[C@H](C)CN(c2cccc3c(N(C)C)c(C(=O)N[C@H]4CCOc5ccccc54)cnc23)C1 [Example 34, N-[(4S)-3,4-dihydro-2H-chromen-4-yl]-4-(dimethylamino)-8-[(3R,5S)-3,5-dimethylpiperidin-1-yl]quinoline-3-carboxamide] | < 1 µg/mL | < 0.1 µg/mL | < 3.16 nM |
| CN(C)c1c(C(=O)N[C@H]2CCOc3ccccc32)cnc2c(C3=CCC(C)(C)CC3)cccc12 [Example 18, (S)—N-(Chroman-4-yl)-4-(dimethylamino)-8-(4,4-dimethylcyclohex-1-en-1-yl)quinoline-3-carboxamide] | < 10 µg/mL | < 1 µg/mL | 31.6 to 316 nM |
| CC(C)c1c(C(=O)N[C@H]2CCOc3ccccc32)cnc2c(N3C[C@H](C)C[C@H](C)C3)c(F)ccc12 [Example 38, N-[(4S)-3,4-dihydro-2H-chromen-4-yl]-8-[(3R,5S)-3,5-dimethylpiperidin-1-yl]-7-fluoro-4-(propan-2-yl)quinoline-3-carboxamide] | < 0.1 µg/mL | < 0.1 µg/mL | < 3.16 nM |
| CC(C)c1c(C(=O)N[C@H]2CCOc3ccccc32)cnc2c(N3CCCCC3)c(F)ccc12 [Example 37, N-[(4S)-3,4-dihydro-2H-chromen-4-yl]-7-fluoro-8-(piperidin-1-yl)-4-(propan-2-yl)quinoline-3-carboxamide] | < 0.1 µg/mL | < 0.1 µg/mL | 3.16 to 31.6 nM |
| CN(C)c1c(C(=O)N[C@H]2CCOc3ccccc32)cnc2c(C3CCCCC3)cccc12 [Example 12, (S)—N-(Chroman-4-yl)-8-cyclohexyl-4-(dimethylamino)quinoline-3-carboxamide] | < 0.1 µg/mL |  | 3.16 to 31.6 nM |
| O=C(N[C@H]1CCc2ccccc21)c1cnc2c(N3CCCC3)c(F)ccc2c1N1CCOCC1 [Example 48, N-[(1S)-2,3-dihydro-1H-inden-1-yl]-7-fluoro-4-(morpholin-4-yl)-8-(pyrrolidin-1-yl)quinoline-3-carboxamide] | < 1 µg/mL |  | 3.16 to 31.6 nM |
| O=C(N[C@H]1CCOc2ccccc21)c1cnc2c(NC3CCCCC3)cccc2c1N1CCOCC1 [Example 25, 8-(cyclohexylamino)-N-[(4S)-3,4-dihydro-2H-chromen-4-yl]-4-(morpholin-4-yl)quinoline-3-carboxamide] | < 10 µg/mL |  | 3.16 to 31.6 nM |
| CN(C)c1c(C(=O)N[C@H]2CCOc3ccccc32)cnc2c(N3CCCCC3)cccc12 [Example 30, N-[(4S)-3,4-dihydro-2H-chromen-4-yl]-4-(dimethylamino)-8-(piperidin-1-yl)quinoline-3-carboxamide] | < 1 µg/mL |  | 31.6 to 316 nM |
| CN(C)c1c(C(=O)N[C@H]2CCOc3ccccc32)cnc2c(C3CCC(C)(C)CC3)cccc12 [Example 19, (S)—N-(Chroman-4-yl)-4-(dimethylamino)-8-(4,4-dimethylcyclohexyl)quinoline-3-carboxamide] | < 1 µg/mL |  | 31.6 to 316 nM |
| C=C(C)c1cccc2c(N(C)C)c(C(=O)N[C@H]3CCOc4ccccc43)cnc12 [Example 9, (S)—N-(Chroman-4-yl)-4-(dimethylamino)-8-(prop-1-en-2-yl)quinoline-3-carboxamide] | < 1 µg/mL |  | 31.6 to 316 nM |
| CN(C)c1c(C(=O)N[C@H]2CCOc3ccccc32)cnc2c(C3CCC(C(F)(F)F)CC3)cccc12 (stereo partly drawn) [Example 17, N—((S)-Chroman-4-yl)-4-(dimethylamino)-8-(4-(trifluoromethyl)cyclohexyl)quinoline-3-carboxamide] | < 0.1 µg/mL |  | 3.16 to 31.6 nM |
| CN(C)c1c(C(=O)N[C@H]2CCOc3ccccc32)cnc2c(C3=CCCC3)cccc12 [Example 7, (S)—N-(Chroman-4-yl)-8-(cyclopent-1-en-1-yl)-4-(dimethylamino)quinoline-3-carboxamide] | < 1 µg/mL |  | 3.16 to 31.6 nM |
| CN(C)c1c(C(=O)N[C@H]2CCOc3ccccc32)cnc2c(C3CCCC3)cccc12 [Example 8, (S)—N-(Chroman-4-yl)-8-cyclopentyl-4-(dimethylamino)quinoline-3-carboxamide] | < 0.1 µg/mL |  | < 3.16 nM |
| C[C@@H]1CN(c2cccc3c(N4CCOCC4)c(C(=O)N[C@H]4CCOc5ccccc54)cnc23)C[C@@H](C)O1 [Example 32, N-[(4S)-3,4-dihydro-2H-chromen-4-yl]-8-[(2R,6R)-2,6-dimethylmorpholin-4-yl]-4-(morpholin-4-yl)quinoline-3-carboxamide] | < 1 µg/mL |  | 316 to 5010 nM |
| C[C@@H]1CN(c2cccc3c(N4CCOCC4)c(C(=O)N[C@H]4CCOc5ccccc54)cnc23)C[C@H](C)O1 [Example 31, N-[(4S)-3,4-dihydro-2H-chromen-4-yl]-8-[(2R,6S)-2,6-dimethylmorpholin-4-yl]-4-(morpholin-4-yl)quinoline-3-carboxamide] | < 10 µg/mL |  | 31.6 to 316 nM |
| CN(C)c1c(C(=O)N[C@H]2CCOc3ccccc32)cnc2c(C3CCCCCC3)cccc12 [Example 15, (S)—N-(Chroman-4-yl)-8-cycloheptyl-4-(dimethylamino)quinoline-3-carboxamide] | < 0.1 µg/mL | < 0.1 µg/mL | 3.16 to 31.6 nM |
| CN(C)c1c(C(=O)N[C@H]2CCOc3ccccc32)cnc2c(C3=CCCCC3)cccc12 [Example 11, (S)—N-(Chroman-4-yl)-8-(cyclohex-1-en-1-yl)-4-(dimethylamino)quinoline-3-carboxamide] | < 1 µg/mL |  | 3.16 to 31.6 nM |
| CN(C)c1c(C(=O)N[C@H]2CCc3ccccc32)cnc2c(N3CCCCC3)c(F)ccc12 [Example 44, N-[(1S)-2,3-dihydro-1H-inden-1-yl]-4-(dimethylamino)-7-fluoro-8-(piperidin-1-yl)quinoline-3-carboxamide] | < 1 µg/mL |  | 3.16 to 31.6 nM |
| CC1CC(C)CN(c2c(F)ccc3c(N4CCOCC4)c(C(=O)N[C@H]4CCc5ccccc54)cnc23)C1 (stereo partly drawn) [Example 49, N-[(1S)-2,3-dihydro-1H-inden-1-yl]-8-(3,5-dimethylpiperidin-1-yl)-7-fluoro-4-(morpholin-4-yl)quinoline-3-carboxamide] | < 0.1 µg/mL | < 0.1 µg/mL | < 3.16 nM |
| C[C@H]1COCCN1c1cccc2c(N3CCOCC3)c(C(=O)N[C@H]3CCOc4ccccc43)cnc12 [Example 23, N-[(4S)-3,4-Dihydro-2H-chromen-4-yl]-8-[(3S)-3-methylmorpholin-4-yl]-4-(morpholin-4-yl)quinoline-3-carboxamide] | < 10 µg/mL |  | 316 to 5010 nM |
| CC(C)(C)OC(=O)Nc1cccc2c(N3CCOCC3)c(C(=O)N[C@H]3CCOc4ccccc43)cnc12 [Example 26, tert-butyl {3-[(4S)-3,4-dihydro-2H-chromen-4-ylcarbamoyl]-4-(morpholin-4-yl)quinolin-8-yl}carbamate] | < 0.1 µg/mL |  | 3.16 to 31.6 nM |
| CC(C)CC(C)c1cccc2c(N3CCOCC3)c(C(=O)N[C@H]3CCOc4ccccc43)cnc12 (stereo partly drawn) [Example 22, N-[(4S)-3,4-dihydro-2H-chromen-4-yl]-8-(4-methylpentan-2-yl)-4-(morpholin-4-yl)quinoline-3-carboxamide] | < 0.1 µg/mL | < 0.1 µg/mL | 3.16 to 31.6 nM |
